The text below walks through data of paper PMC9446078 (Frontiers in Endocrinology, 2022).

Data set [1] is described as follows: Toxicokinetics in miniature swine. It counts as in vivo, Hanford miniature swine. Conditions: for Cmax: read-out: Cmax; for Tmax: read-out: Tmax. As for the experimental part:
A total of 40 Hanford miniature swine (20 male and 20 female) divided into four treatment groups were used for this study. A 12-week topical application of Galnobax 20% was carried out in the miniature swine wound healing model with twice-daily dosing. Six wounds (10 cm^2 each) of partial thickness were created on the dorsal region of all animals. Four wounds of each animal received twice-daily topical doses of either the vehicle or Galnobax gel, and the remaining two sites served as untreated comparative control wounds. Each group has four male and female miniature swine for the assessments and one each for the recovery period as given in Table 1 . Safety parameters in terms of ECG, clinical pathology, wound site evaluation, and toxicokinetics were performed during the study.

Data set [2] in a line: MTT cytotoxicity in HFF-1. The data set is classed as cell-based, human. Conditions: human, HFF-1 cells, HFF-1, 48 h, read-out: % Cytotoxicity w.r.t. untreated cells. The method, then: (§1) 1. HaCaT, HFF-1 and Ea.hy926 cells were counted and plated in 96 well plates at the density corresponding to 5 X 10^3 cells/well/180 μl of cell growth medium.
(§2) 2. The above cells were then incubated overnight under growth conditions of 37°C, 95 % Humidity, 5 % CO2.so as to allow the cell recovery and exponential growth.
(§3) 3. Following overnight incubation, the above cells were serum starved in DMEM (containing 25 mM glucose) supplemented with […] for 24 h.
(§4) 5. The Ea.hy926 cells were then incubated for 24 h and HaCaT and HFF-1 cells were incubated for 48 h in CO2 incubator at 37 °C, 5 % CO2 and 95 % humidity.
(§5) 6. Following incubation, the plates were taken out and 20 μl of 5 mg/ml of MTT 3-(4,5-dimethythiazol-2-yl)-2,5-diphenyl tetrazolium bromide solution was added to all the wells followed by additional incubation for 3 h at 37 °C. The supernatant was aspirated and 150 μl of DMSO was added to each well to dissolve formazan crystals. The absorbance of each well was then read at 540 nm using Synergy HT micro plate reader.
(§6) 7. The percentage cytotoxicity at each tested concentration was calculated using the following formula:
(§7) % Cytotoxicity = (1-X/R)*100

The test system of another data set is HFF-1 cells. As to the kind of experiment: MTT cytotoxicity in HFF-1. The data set is classed as cell-based, human. Conditions: HFF-1, all tested concentrations (0.01 to 1000 μM); <30% = non-cytotoxic. The method, then: as §1, §2, §3, §4, §5, §6, §7
In data set [3] the test system is HaCaT (human keratinocytes). As to the kind of experiment: Scratch assay, keratinocyte migration under high glucose. It counts as cell-based. As for the experimental part: (§8) High blood glucose levels hamper the migration of human fibroblasts, endothelial cells, and keratinocytes that impair wound healing ([16]–[20]). […] The detailed protocol and cytotoxicity results are provided in the Supplementary File. An actively growing culture of HFF-1 (human dermal fibroblasts), Ea.hy926 (human endothelial cells), and HaCaT (human keratinocytes) cell lines in Dulbecco’s modified Eagle’s medium containing 25 mM glucose supplemented with 10% fetal bovine serum was prepared. The cells were counted through a hemocytometer and were seeded at a density of 0.08 × 10^6 (HFF-1), 0.1 × 10^6 (Ea.hy926), and 0.2 × 10^6 (HaCaT Cells) cells/well/ml of culture medium. The plates were incubated overnight followed by serum starvation for 24 h. Scratch wounds were made in a confluent monolayer by making a straight scratch in the center of the well using a sterile 200-µl pipette microtip. […] The kinetics of migration of the cells in the wound was recorded by phase-contrast microscopy. The experiment was carried out in duplicate cells for each concentration.

In data set [4] the target is T1, human recombinant aldose reductase (Homo sapiens, UniProt P15121).
T1 construct: made in house; host or cells: Escherichia coli
The data set is described as follows: Aldose reductase inhibition assay (spectrophotometric, glyceraldehyde substrate). The following applies: recombinant enzyme, DL-glyceraldehyde substrate, pH 6.2, 37°C. It counts as biochemical. The method, then: Recombinant human aldose reductase was purified from bacterial cultures. Enzyme from expression cultures was extracted and purified essentially as described previously ([12]) with the exception that affinity chromatography over AffiGel Blue (Bio-Rad) was used as a final purification step.
AR activity was assayed according to the method described in the literature ([13]). The assay mixture in 1 ml contained 50 μM potassium phosphate buffer, pH 6.2, 0.4 mM lithium sulfate, 5 μM 2-mercapto ethanol, 10 μM DL-glyceraldehyde, 0.1 μM NADPH, and enzyme preparation (recombinant enzyme). Appropriate blanks were employed for corrections. The assay mixture was incubated at 37°C and initiated by the addition of NADPH at 37°C. The change in absorbance at 340 nm due to NADPH oxidation was followed in a Cary Bio 100 spectrophotometer.
The percent of inhibition with a test compound was calculated considering that the AR activity in the absence of an inhibitor was 100%. The concentration of the test sample giving 50% inhibition (IC50) was then estimated.

Data set [5] relates to HFF-1 (human dermal fibroblasts). As to the kind of experiment: Scratch assay, fibroblast migration under high glucose. The data set is classed as cell-based. As for the experimental part: as §8
[6] abbreviates: both sexes, Hanford, pig, blood, topical or ocular, 400 mg, Day 1, Group 2 swine, topical 400 mg Galnobax Gel, mean.
The mark [7] stands for this setting: both sexes, Hanford, pig, blood, topical or ocular, 400 mg, Week 12, Group 2 swine, topical 400 mg Galnobax Gel BID, mean.
[8] abbreviates: 1 and 10 µM, compared with control, high glucose.
Setting [9] is: 100 and 500 µM compared with 1 and 10 µM.

Counter-ions that a name gives are not always drawn. Like-named read-outs stand apart in the source and are kept apart here.

As for `COC(=O)CCc1ccc(OCC(O)CNC(C)C)cc1` (centres unmarked) [Esmolol hydrochloride], the concentration at 8 hr in data set [1] (both sexes, Hanford, pig (miniature swine), blood, after first topical dose of Galnobax Gel 400 mg, below the quantitation limit, read-out: blood concentration by the second daily dose (8 hr)) was below 5 ng/mL. For the same molecule, the AUC(0-t) (commonly exposure summed from dosing to a finite time, without extrapolation to infinity) amounted to 18.7 ng·h/mL in data set [1] (setting [6]) and 17.5 ng·h/mL in data set [1] (setting [7]). Besides, the highest concentration (Cmax) (as a rule, the highest concentration seen after dosing) in data set [1] (setting [6]) was found to be 30.3 ng/mL; in data set [1] (setting [7]), 140 ng/mL. For the same molecule, the Tmax (as a rule, the time at which the peak concentration occurs) in data set [1] (setting [6]) amounted to 18 min; in data set [1] (setting [7]), 22.8 min. In addition, the AUC from 0 to 8 h in data set [1] (both sexes, Hanford, pig, blood, topical or ocular, 400 mg, Week 12, Group 2 swine, topical 400 mg Galnobax Gel BID, mean, read-out: AUC0-8) came to 35.4 ng·h/mL. Also, in data set [1] (miniature swine, topical Galnobax), the “accumulation after 12 weeks of twice-daily topical application” value was “no apparent accumulation”. Further, the cytotoxicity at 48 h, 0.01 µM in data set [2] (0.01 μM) is -21.6%. In addition, the cytotoxicity at 48 h, 0.1 µM in data set [2] (0.1 μM) is -10.7%. For the same molecule, the cytotoxicity at 48 h, 1 µM in data set [2] (1 μM) was -8.29%. In data set [2] (10 μM), the cytotoxicity at 48 h, 10 µM was -17.1%. Also, the cytotoxicity at 48 h, 50 µM in data set [2] (50 μM) is -21.8%. Moreover, the cytotoxicity at 48 h, 100 µM in data set [2] (100 μM) is -21.9%. Besides, the cytotoxicity at 48 h, 500 µM in data set [2] (500 μM) amounted to 14%. The cytotoxicity at 48 h, 1000 µM in data set [2] (1000 μM) was 16.6%. Also, the “cytotoxicity” value in the data set on HFF-1 cells was “non-cytotoxic”. Also, the migration of keratinocytes entry in data set [3] (setting [8]) is given as “enhanced the migration”; in data set [3] (setting [9]), “lower migration”. Also, the IC50 (commonly the concentration needed to halve the response being measured) in data set [4] stood at 150 µM. Further, the migration of fibroblasts result is listed as “enhanced the migration” in data set [5] (setting [8]) and “lower migration” in data set [5] (setting [9]).
